Measurements taken from patent US12139520B2 (priority 2020, dated 2024).
Bridge positions count the residues as written; N and C are the ends. Square brackets hold non-standard residues; d marks the D form. Peptide text beside a SMILES is read from it. Hyp = O=C(O)[C@@H]1C[C@@H](O)CN1; Cit = NC(=O)NCCC[C@H](N)C(=O)O

How the values were obtained:
hAMY3 receptor = molecular target: T1, hAMY3 receptor (Homo sapiens, UniProt O60896+P30988); assay: cAMP assay for in vitro receptor activation, hAMY3-R; assay type: cell-based; settings: cAMP assay, hAMY3 receptor; read-out: hAMY3R EC50
T1 sequence (P30988 25-474): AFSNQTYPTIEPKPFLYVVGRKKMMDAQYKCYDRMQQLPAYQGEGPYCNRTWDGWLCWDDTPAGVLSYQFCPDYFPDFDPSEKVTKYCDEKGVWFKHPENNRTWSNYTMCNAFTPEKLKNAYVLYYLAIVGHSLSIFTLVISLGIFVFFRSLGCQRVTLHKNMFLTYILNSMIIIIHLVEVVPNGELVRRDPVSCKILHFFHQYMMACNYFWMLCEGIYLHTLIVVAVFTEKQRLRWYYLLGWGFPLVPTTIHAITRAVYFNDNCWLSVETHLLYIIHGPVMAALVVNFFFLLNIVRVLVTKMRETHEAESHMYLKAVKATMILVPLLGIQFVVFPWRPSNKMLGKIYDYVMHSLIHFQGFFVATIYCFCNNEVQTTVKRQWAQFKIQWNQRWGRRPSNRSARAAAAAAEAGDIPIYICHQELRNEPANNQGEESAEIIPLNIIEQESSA
T1 sequence (O60896 24-148 partner): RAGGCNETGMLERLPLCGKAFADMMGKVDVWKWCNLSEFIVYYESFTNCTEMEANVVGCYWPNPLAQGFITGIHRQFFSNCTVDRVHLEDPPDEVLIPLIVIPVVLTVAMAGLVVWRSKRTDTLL
Outline: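 Accumulated cAMP was detected by time-resolved FRET one hour after reagent addition. Beforehand, hAMY3-R-overexpressing monoclonal cells (2000/well, DPBS, 0.05% casein, 0.5 mM IBMX) received graded doses of compound for 30 min at room temperature; human amylin served as positive control.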

[1] = Physical stability of peptide analogues (Thioflavin T fibrillation); assay type: physicochemical; settings: maximum ThT signal normalized between hAMY maximum and buffer background; 40° C., shaking, four days; pH 7 per table title
Outline: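 Samples are stressed at 40 °C for four days, being shaken at 700 rpm before each 10-min fluorescence reading of 4 μM Thioflavin T. Buffers were pH 4 acetate or pH 7 phosphate. Reported values are smoothed maximum ThT signals as a percentage of the hAMY-to-background range.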

| EC50 (hAMY3 receptor) [nM] | Max ThT signal (%) [1] [%] | Compound |
| --- | --- | --- |
| 0.016 | 20.950 | CC[C@H](C)[C@H](NC(=O)[C@H](CCC(N)=O)NC(=O)[C@H](Cc1c[nH]cn1)NC(=O)[C@H](C)NC(=O)[C@H](CC(C)C)NC(=O)[C@H](CCCNC(N)=O)NC(=O)[C@H](CCC(N)=O)NC(=O)[C@@H](NC(=O)[C@@H](NC(=O)[C@@H]1CSSC[C@H](NC(=O)[C@@H](N)CCCCN)C(=O)N[C@@H](CC(N)=O)C(=O)N[C@@H]([C@@H](C)O)C(=O)N[C@@H](C)C(=O)N[C@@H]([C@@H](C)O)C(=O)N1)[C@@H](C)O)C(C)C)C(=O)N[C@@H](Cc1ccc(O)cc1)C(=O)N[C@@H](CCC(N)=O)C(=O)N[C@@H](Cc1ccccc1)C(=O)N[C@H](C(=O)N[C@@H](CC(=O)O)C(=O)N[C@@H](CCCCN)C(=O)N[C@@H](CC(=O)O)C(=O)N[C@@H](CCCCN)C(=O)N[C@@H](CC(=O)O)C(=O)N[C@@H](CC(N)=O)C(=O)N[C@H](C(=O)N[C@@H](C)C(=O)N1CCC[C@H]1C(=O)N[C@@H](CCCNC(=N)N)C(=O)N[C@H](C(=O)N[C@@H](CCCCN)C(=O)N[C@H](C(=O)NCC(=O)N[C@@H](CO)C(=O)N[C@@H](CC(N)=O)C(=O)NCC(=O)N[C@@H](Cc1ccc(O)cc1)C(N)=O)C(C)C)[C@@H](C)O)C(C)C)[C@@H](C)O [compound 257] (H-KCNTATCTVQ[Cit]LAHQIYQFTDKDKDNVAPRTKVGSNGY-NH2; disulfide 2-7; N-terminus assumed) |
| 0.013 | 13.450 | CC[C@H](C)[C@H](NC(=O)[C@H](CCC(N)=O)NC(=O)[C@H](Cc1c[nH]cn1)NC(=O)[C@H](C)NC(=O)[C@H](CC(C)C)NC(=O)[C@H](CCCNC(N)=O)NC(=O)[C@H](CCC(N)=O)NC(=O)[C@@H](NC(=O)[C@@H](NC(=O)[C@@H]1CSSC[C@H](NC(=O)CN)C(=O)N[C@@H](CCCNC(=N)N)C(=O)N[C@@H](Cc2ccccc2)C(=O)NCC(=O)N[C@@H]([C@@H](C)O)C(=O)N1)[C@@H](C)O)C(C)C)C(=O)N[C@@H](Cc1ccc(O)cc1)C(=O)N[C@@H](CCC(N)=O)C(=O)N[C@@H](Cc1ccccc1)C(=O)N[C@H](C(=O)N[C@@H](CC(=O)O)C(=O)N[C@@H](CCCCN)C(=O)N[C@@H](CC(=O)O)C(=O)N[C@@H](CCCCN)C(=O)N[C@@H](CC(=O)O)C(=O)N[C@@H](CC(N)=O)C(=O)N[C@H](C(=O)N[C@@H](C)C(=O)N1CCC[C@H]1C(=O)N[C@@H](CCCNC(=N)N)C(=O)N[C@H](C(=O)N[C@@H](CCCCN)C(=O)N[C@H](C(=O)NCC(=O)N1CCC[C@H]1C(=O)N[C@@H](CCC(N)=O)C(=O)NCC(=O)N1C[C@H](O)C[C@H]1C(N)=O)C(C)C)[C@@H](C)O)C(C)C)[C@@H](C)O [compound 259] (H-GCRFGTCTVQ[Cit]LAHQIYQFTDKDKDNVAPRTKVGPQG[Hyp]-NH2; disulfide 2-7) |
| 0.011 | 34.100 | CC[C@H](C)[C@H](NC(=O)[C@H](CC(N)=O)NC(=O)[C@@H](NC(=O)[C@H](CCCNC(=N)N)NC(=O)[C@@H]1CCCN1C(=O)[C@H](C)NC(=O)[C@@H](NC(=O)[C@H](CC(N)=O)NC(=O)[C@H](CC(=O)O)NC(=O)[C@H](CCCCN)NC(=O)[C@H](CC(=O)O)NC(=O)[C@H](CCCCN)NC(=O)[C@H](CC(=O)O)NC(=O)[C@@H](NC(=O)[C@H](Cc1ccccc1)NC(=O)[C@H](CCC(N)=O)NC(=O)[C@H](Cc1ccc(O)cc1)NC(=O)[C@@H](NC(=O)[C@H](CCC(N)=O)NC(=O)[C@H](Cc1c[nH]cn1)NC(=O)[C@H](C)NC(=O)[C@H](CC(C)C)NC(=O)[C@H](CCCNC(N)=O)NC(=O)[C@H](CCC(N)=O)NC(=O)[C@@H](NC(=O)[C@@H](NC(=O)[C@@H]1CSSC[C@H](NC(=O)CN)C(=O)N[C@@H](CCCNC(=N)N)C(=O)N[C@@H](Cc2ccccc2)C(=O)NCC(=O)N[C@@H]([C@@H](C)O)C(=O)N1)[C@@H](C)O)C(C)C)[C@@H](C)CC)[C@@H](C)O)C(C)C)[C@@H](C)O)C(=O)NCC(=O)N1CCC[C@H]1C(=O)N[C@@H](CCC(N)=O)C(=O)NCC(=O)N1C[C@H](O)C[C@H]1C(N)=O [compound 260] (H-GCRFGTCTVQ[Cit]LAHQIYQFTDKDKDNVAPRTNIGPQG[Hyp]-NH2; disulfide 2-7; N-terminus assumed) |
| 0.005 | 1.050 | CC(C)C[C@H](NC(=O)[C@H](CCCNC(N)=O)NC(=O)[C@H](CCC(N)=O)NC(=O)[C@@H](NC(=O)[C@@H](NC(=O)[C@@H]1CSSC[C@H](NC(=O)CN)C(=O)N[C@@H](CCCNC(=N)N)C(=O)N[C@@H](Cc2ccccc2)C(=O)NCC(=O)N[C@@H]([C@@H](C)O)C(=O)N1)[C@@H](C)O)C(C)C)C(=O)N[C@@H](C)C(=O)N[C@@H](Cc1c[nH]cn1)C(=O)N[C@@H](Cc1ccccc1)C(=O)N[C@@H](CC(C)C)C(=O)N[C@@H](Cc1ccc(O)cc1)C(=O)N[C@@H](CCC(N)=O)C(=O)N[C@@H](Cc1ccccc1)C(=O)N[C@H](C(=O)N[C@@H](CC(=O)O)C(=O)N[C@@H](CCCCN)C(=O)N[C@@H](CC(=O)O)C(=O)N[C@@H](CCCCN)C(=O)N[C@@H](CC(=O)O)C(=O)N[C@@H](CC(N)=O)C(=O)N[C@H](C(=O)N[C@@H](C)C(=O)N1CCC[C@H]1C(=O)N[C@@H](CCCNC(=N)N)C(=O)N[C@H](C(=O)N[C@@H](CC(N)=O)C(=O)N[C@H](C(=O)NCC(=O)N1CCC[C@H]1C(=O)N[C@@H](CCC(N)=O)C(=O)NCC(=O)N[C@@H](Cc1ccc(O)cc1)C(N)=O)C(C)C)[C@@H](C)O)C(C)C)[C@@H](C)O [compound 263] (H-GCRFGTCTVQ[Cit]LAHFLYQFTDKDKDNVAPRTNVGPQGY-NH2; disulfide 2-7; N-terminus assumed) |
| 0.006 | 1.350 | CC(C)C[C@H](NC(=O)[C@H](CCCNC(N)=O)NC(=O)[C@H](CCC(N)=O)NC(=O)[C@@H](NC(=O)[C@@H](NC(=O)[C@@H]1CSSC[C@H](NC(=O)CN)C(=O)N[C@@H](CCCNC(=N)N)C(=O)N[C@@H](Cc2ccccc2)C(=O)NCC(=O)N[C@@H]([C@@H](C)O)C(=O)N1)[C@@H](C)O)C(C)C)C(=O)N[C@@H](C)C(=O)N[C@@H](Cc1c[nH]cn1)C(=O)N[C@@H](Cc1ccccc1)C(=O)N[C@@H](CC(C)C)C(=O)N[C@@H](Cc1ccc(O)cc1)C(=O)N[C@@H](CCC(N)=O)C(=O)N[C@@H](Cc1ccccc1)C(=O)N[C@H](C(=O)N[C@@H](CC(=O)O)C(=O)N[C@@H](CCCCN)C(=O)N[C@@H](CC(=O)O)C(=O)N[C@@H](CCCCN)C(=O)N[C@@H](CC(=O)O)C(=O)N[C@@H](CC(N)=O)C(=O)N[C@H](C(=O)N[C@@H](C)C(=O)N1CCC[C@H]1C(=O)N[C@@H](CCCNC(=N)N)C(=O)N[C@H](C(=O)N[C@@H](CC(N)=O)C(=O)N[C@H](C(=O)NCC(=O)N[C@@H](CO)C(=O)N[C@@H](CC(N)=O)C(=O)N[C@H](C(=O)N[C@@H](Cc1ccc(O)cc1)C(N)=O)[C@@H](C)O)C(C)C)[C@@H](C)O)C(C)C)[C@@H](C)O [compound 264] (H-GCRFGTCTVQ[Cit]LAHFLYQFTDKDKDNVAPRTNVGSNTY-NH2; disulfide 2-7) |
